Test results published in PMC3914206.

How the values were obtained:
Format in all cases: binding
Settings in all cases: Compound Concentration 10 µM
[1] = target: T1, panel of 442 kinases (Homo sapiens, UniProt O75116)
T1 construct: purchased KINOMEscan
Source text: (§1) We assessed the selectivity of members of this scaffold using the KINOMEscan methodology across a near comprehensive panel of 442 kinases [[18,27]].

[2] = target: T2, panel of 442 kinases (Homo sapiens, UniProt Q08345)
T2 construct: purchased KINOMEscan
T2 sequence (Q08345 19-913): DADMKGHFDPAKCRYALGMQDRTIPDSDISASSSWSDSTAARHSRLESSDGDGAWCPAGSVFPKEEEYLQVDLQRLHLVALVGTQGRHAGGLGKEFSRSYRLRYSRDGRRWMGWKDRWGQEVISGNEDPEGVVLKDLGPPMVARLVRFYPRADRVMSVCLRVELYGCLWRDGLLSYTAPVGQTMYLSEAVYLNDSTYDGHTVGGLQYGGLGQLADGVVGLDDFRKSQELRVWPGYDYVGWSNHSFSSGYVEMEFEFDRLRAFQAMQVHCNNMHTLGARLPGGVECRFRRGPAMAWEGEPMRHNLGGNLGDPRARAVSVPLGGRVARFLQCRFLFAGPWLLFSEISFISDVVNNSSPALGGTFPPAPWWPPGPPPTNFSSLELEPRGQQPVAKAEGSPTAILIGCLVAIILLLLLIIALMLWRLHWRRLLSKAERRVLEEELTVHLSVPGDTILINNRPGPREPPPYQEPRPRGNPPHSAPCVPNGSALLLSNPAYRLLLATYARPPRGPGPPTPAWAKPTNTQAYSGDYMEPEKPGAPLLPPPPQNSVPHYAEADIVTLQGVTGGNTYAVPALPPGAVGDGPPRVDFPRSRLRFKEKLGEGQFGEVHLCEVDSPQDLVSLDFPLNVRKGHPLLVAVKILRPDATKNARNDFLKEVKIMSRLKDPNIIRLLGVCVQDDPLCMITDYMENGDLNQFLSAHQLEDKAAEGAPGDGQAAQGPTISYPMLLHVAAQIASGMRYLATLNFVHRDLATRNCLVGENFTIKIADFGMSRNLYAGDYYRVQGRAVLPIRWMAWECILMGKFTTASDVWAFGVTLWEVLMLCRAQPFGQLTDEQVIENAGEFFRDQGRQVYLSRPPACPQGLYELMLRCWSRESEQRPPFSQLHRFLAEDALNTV
Source text: as §1

[3] = target: T3, panel of 442 kinases (Homo sapiens, UniProt Q12866)
T3 construct: purchased KINOMEscan
T3 sequence (Q12866 21-999): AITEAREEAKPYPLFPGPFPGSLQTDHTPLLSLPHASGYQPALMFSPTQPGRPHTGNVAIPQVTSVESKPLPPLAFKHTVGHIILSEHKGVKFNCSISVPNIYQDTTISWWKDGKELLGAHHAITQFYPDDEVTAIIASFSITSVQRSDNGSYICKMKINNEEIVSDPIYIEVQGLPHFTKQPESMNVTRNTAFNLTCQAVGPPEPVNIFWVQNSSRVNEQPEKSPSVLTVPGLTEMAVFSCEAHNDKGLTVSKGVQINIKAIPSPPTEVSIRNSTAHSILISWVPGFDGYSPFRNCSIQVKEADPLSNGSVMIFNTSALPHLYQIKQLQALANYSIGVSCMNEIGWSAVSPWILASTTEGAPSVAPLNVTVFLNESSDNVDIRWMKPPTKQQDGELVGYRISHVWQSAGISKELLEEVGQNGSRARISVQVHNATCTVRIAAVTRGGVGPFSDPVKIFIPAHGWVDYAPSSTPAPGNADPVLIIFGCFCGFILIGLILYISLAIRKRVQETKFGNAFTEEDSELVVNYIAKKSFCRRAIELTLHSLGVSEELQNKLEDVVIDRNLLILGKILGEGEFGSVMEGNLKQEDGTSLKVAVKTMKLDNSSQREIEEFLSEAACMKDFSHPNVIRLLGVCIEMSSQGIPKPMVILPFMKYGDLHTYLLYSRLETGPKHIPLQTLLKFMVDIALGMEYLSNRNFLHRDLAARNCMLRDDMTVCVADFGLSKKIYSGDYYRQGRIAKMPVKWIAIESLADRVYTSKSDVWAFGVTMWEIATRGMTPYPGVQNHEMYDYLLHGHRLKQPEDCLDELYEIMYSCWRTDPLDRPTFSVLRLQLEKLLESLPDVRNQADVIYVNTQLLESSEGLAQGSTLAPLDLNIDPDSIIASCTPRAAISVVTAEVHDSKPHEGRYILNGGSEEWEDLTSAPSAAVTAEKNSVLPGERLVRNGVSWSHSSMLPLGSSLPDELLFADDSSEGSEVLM
Source text: as §1

T1 sequence (O75116 whole entry): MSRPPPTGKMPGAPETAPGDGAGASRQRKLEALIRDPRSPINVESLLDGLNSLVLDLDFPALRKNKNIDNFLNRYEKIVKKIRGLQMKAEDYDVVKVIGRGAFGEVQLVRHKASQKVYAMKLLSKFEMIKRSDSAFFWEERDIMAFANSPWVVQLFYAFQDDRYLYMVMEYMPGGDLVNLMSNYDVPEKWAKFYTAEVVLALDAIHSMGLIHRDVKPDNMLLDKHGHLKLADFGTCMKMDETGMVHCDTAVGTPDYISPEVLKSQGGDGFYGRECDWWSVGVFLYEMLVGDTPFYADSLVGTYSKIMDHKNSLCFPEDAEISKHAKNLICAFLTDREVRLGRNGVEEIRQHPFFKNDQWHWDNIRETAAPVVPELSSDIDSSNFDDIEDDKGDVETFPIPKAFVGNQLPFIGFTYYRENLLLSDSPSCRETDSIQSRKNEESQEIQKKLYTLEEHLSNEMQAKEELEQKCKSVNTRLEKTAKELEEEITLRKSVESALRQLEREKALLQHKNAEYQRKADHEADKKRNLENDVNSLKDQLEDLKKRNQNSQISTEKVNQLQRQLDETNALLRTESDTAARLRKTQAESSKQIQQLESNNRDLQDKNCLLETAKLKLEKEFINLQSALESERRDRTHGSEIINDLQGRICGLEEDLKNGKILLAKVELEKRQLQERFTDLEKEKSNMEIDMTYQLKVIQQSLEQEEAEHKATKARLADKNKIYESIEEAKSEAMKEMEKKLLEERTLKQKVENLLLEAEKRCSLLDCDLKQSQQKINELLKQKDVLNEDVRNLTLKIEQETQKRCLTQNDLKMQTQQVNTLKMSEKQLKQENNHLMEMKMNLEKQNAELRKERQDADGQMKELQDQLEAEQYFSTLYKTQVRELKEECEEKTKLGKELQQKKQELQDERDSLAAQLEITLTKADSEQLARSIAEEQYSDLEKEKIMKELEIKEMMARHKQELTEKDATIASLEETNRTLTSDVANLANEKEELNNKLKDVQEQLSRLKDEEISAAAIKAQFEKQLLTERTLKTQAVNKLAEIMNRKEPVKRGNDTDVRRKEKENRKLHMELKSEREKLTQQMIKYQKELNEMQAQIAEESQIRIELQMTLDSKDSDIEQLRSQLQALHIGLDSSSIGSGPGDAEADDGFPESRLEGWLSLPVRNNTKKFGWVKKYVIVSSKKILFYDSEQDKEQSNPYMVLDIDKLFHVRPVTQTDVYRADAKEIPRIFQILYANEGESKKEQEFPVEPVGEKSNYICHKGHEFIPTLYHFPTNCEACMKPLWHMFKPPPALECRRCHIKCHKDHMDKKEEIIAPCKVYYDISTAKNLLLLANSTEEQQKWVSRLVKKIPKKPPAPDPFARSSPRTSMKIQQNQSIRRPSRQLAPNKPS

| SMILES | KINOMEscan: ROCK2 [1] | KINOMEscan: DDR1 [2] | KINOMEscan: MERTK [3] |
| --- | --- | --- | --- |
| COc1cc(C(=O)N2CCC(N3CCN(C)CC3)CC2)ccc1Nc1ncc2c(n1)N(C)c1ccccc1C(=O)N2C [15 (LRRK2-IN-1)] | 87 | 100 | 100 |
| COc1cc(C(=O)N2CCC(N3CCN(C)CC3)CC2)ccc1Nc1ncc2c(n1)N1CCc3cccc(c31)C(=O)N2C [Compound 24] | 65 | 67 |  |
| COc1cc(C(=O)N2CCC(N3CCN(C)CC3)CC2)ccc1Nc1ncc2c(n1)N(C1CCCC1)c1ccccc1C(=O)N2C [Compound 25, 11-cyclopentyl-2-((2-methoxy-4-(4-(4-methylpiperazin-1-yl)piperidine-1-carbonyl)phenyl)amino)-5-methyl-5H-benzo[e]pyrimido[5,4-b][1,4]diazepin-6(11H)-one] | 79 | 98 | 100 |
| CCOc1cc(C(=O)N2CCC(N3CCN(C)CC3)CC2)ccc1Nc1ncc2c(n1)N(C1CCCC1)c1ccccc1C(=O)N2C [Compound 26] | 83 | 100 | 100 |
